Each structure is given as a SMILES string.

The first assay deals with T1, FAAH (Homo sapiens, UniProt O00519).
T1 construct: The full length FAAH was subcloned into the mammalian expression vector, pcDEF.neo; expressed in transfected cells; cDNA from Origene
T1 sequence (O00519 1-579): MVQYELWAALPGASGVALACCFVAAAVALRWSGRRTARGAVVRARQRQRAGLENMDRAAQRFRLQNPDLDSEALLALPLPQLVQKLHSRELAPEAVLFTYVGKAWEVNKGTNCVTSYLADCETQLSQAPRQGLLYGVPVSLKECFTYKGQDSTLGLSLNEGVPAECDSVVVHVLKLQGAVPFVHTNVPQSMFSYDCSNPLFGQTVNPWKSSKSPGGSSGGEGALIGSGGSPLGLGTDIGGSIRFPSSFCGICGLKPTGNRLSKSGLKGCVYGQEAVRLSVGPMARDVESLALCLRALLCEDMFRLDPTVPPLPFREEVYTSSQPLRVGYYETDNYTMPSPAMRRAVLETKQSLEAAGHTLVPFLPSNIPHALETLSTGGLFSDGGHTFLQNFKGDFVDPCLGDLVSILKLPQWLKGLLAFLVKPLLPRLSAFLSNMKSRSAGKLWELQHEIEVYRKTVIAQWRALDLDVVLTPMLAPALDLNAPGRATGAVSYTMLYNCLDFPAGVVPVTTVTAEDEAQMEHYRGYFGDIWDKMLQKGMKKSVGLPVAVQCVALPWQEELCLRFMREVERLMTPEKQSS
The assay can be described thus: FAAH enzyme assay, lysate of CHO cells expressing human FAAH. Format: biochemical. The settings on record: cell lysate, read-out: FAAH Human Cell Lysate IC50. An excerpt: (§1) To assist in assay development stable cell lines for human, murine and rat full length FAAH were developed. Human FAAH cDNA (Accession No: NM_001441.1) was purchased from Origene (Rockville, Md.). The full length FAAH was subcloned into the mammalian expression vector, pcDEF.neo, using XbaI and […] restriction sites and used for stable cell line generation.
CHO cells expressing FAAH were used to prepare either crude cell lysate or microsome fractions. To harvest cells, tissue culture media was decanted, the monolayer washed three times with Ca^++Mg^++ free PBS and cells recovered after 15 min in enzyme free dissociation media (Millipore Corp, Billerica, Mass.). Cells were collected by centrifuging at 2000 rpm for 15 min. and the cell pellet re-suspended with 50 mM HEPES (pH 7.4) containing 1 mM EDTA and the protease inhibitors aprotinin (1 mg/ml) and leupeptin (100 μM). The suspension was sonicated at 4° C. and the cell lysate recovered after centrifuging at 12,000×g (14,600 rpm, SS34 rotor) for 20 min at 4° C. to form a crude pellet of cell debris, nuclei, peroxisomes, lysosomes, and mitochondria; the supernatant or cell lysate was used for FAAH enzyme assay. In some cases, microsomes fractions enriched in FAAH were prepared by centrifuging the cell lysate further at 27,000 rpm (100,000×g) in SW28 rotor for 50 minutes at 4° C. The pellet containing FAAH-enriched microsomes was re-suspend in 50 mM HEPES, (pH 7.4) 1 mM EDTA, and any remaining DNA sheared by passage of material through a 23 gauge needle and aliquots of enzyme were store at −80° C. prior to use.
(American Radiolabeled Chemicals; 1 mCi/ml) with FAAH (Life Sciences (1995), 56, 1999-2005 and Journal of Pharmacology and Experimented Therapeutics (1997), 283, 729-734), Analytical. Biochemistry (2003), 318, 270-5. In addition, routine assays were performed monitoring hydrolysis of arachidonyl-7-amino-4-methylcoumarin amide (AAMCA) by following increase in fluorescence upon release of 7-amino 4-methyl coumarin (λEX=355 nm, (λEM=460 nm). Analytical. Biochemistry (2005). 343, 143-51.
(§2) Assays are performed on either cell lysate or microsome fractions prepared as described or in whole cell format employing either the fluorescent substrate AAMCA (Cayman chemical, Ann Arbor, Mich.,) or ^3H-anandmaide ([ETHANOLAMINE-1-3H]American Radiolabeled Chemicals; 1 mCi/ml). The cell lysate or microsome assay is performed in Costar black wall, clear bottom plates by adding FAAH_CHO (whole cell, cell lysate or microsome) in assay buffer (50 mM Phosphate, pH 8.0, 1 mM EDTA, 200 mM KCl, 0.2% glycerol, 0.1% fatty acid free BSA) to each well, followed by either DMSO or compound and allowed to incubate at 22-25° C. for fifteen minutes. AAMCA substrate was used to achieve a final concentration of 1 μM and reaction allowed to proceed at room temperature for 1-3 hours. Fluorescent release as a measure of FAAH activity was monitored by reading the plate in a CytoFluor Multiplate Reader ([…]). Whole cell assay is conducted with cells harvested after rinsing tissue culture flasks three times with Ca^++Mg^++ free PBS, incubating for 10 mm in Enzyme free dissociation media and centrifuging for 5 minutes at 1,000 rpm in table top centrifuge. Cells are resuspended in assay buffer at desired cell number in (4×10^4 cells/assay in 96-well format; 1×10^4 cells/assay in 384-well format) and assayed as described.
Alternatively, assays are performed using anandamide [ethanolamine 1-^3H] (specific activity of 10 Ci/mmol) diluted with cold anandamide to achieve a final assay concentration of 1 μM anandamide (˜50,000 cpm). Enzyme (CHO cell lysate, brain or liver homogenate) is incubated in assay buffer (50 mM Phosphate, pH 8.0, 1 mM EDTA, 200 mM KCl, 0.2% glycerol, 0.1% fatty acid free BSA) with inhibitor at 25° C. for 30 minutes. The reaction was terminated by addition of 2 volumes of chloroform:methanol (1:1) and mixed by vortexing. […]
Broadly, the IC50 is the midpoint of a concentration-inhibition curve. For the compound `O=C1CCc2cc(-c3nn(-c4ccccn4)cc3Sc3ccc(Cl)cc3)ccc2N1CCF` [Example 346], the IC50 was 15 nM. In the case of `CN(C)C(=O)c1ccc2cc(-c3n[nH]cc3Sc3ccc(Cl)cn3)ccc2n1` [Example 330, 6-{4-[(5-chloropyridin-2-yl)sulfanyl]-1H-pyrazol-3-yl}-N,N-dimethylquinoline-2-carboxamide], the IC50 amounted to 5.8 nM.

Turning to `CCNC(=O)c1cnc2cc(-c3nn(CCF)cc3Sc3ccc(Cl)cc3)cnc2c1` [Example 392], the IC50 worked out at 47 nM. Same read-out and setting: as for `CCC(=O)N1CCc2cc(-c3n[nH]cc3Sc3ccc(Cl)cc3)ccc2C1` [Example 376], the figure is 168 nM; as for `O=C1NCCc2cc(-c3nn(CCF)cc3Sc3ccc(Cl)cc3)ccc21` [Example 311], 91 nM.

Regarding `O=c1c2ccc(-c3nn(C4CC4)cc3Sc3ccc(Cl)cc3)cc2ncn1C1CC1` [Example 314, 7-{4-[(4-chlorophenyl)sulfanyl]-1-cyclopropyl-1H-pyrazol-3-yl}-3-cyclopropylquinazolin-4(3H)-one], the 50% inhibitory concentration (IC50) is 202 nM. On the same count and under the same terms, as for `NC(=O)c1ccc2cc(-c3nn(C4CC4)cc3Sc3ccc(Cl)cn3)ccc2n1` [Example 396], the figure is 14.8 nM; as for `CCN1CCc2cc(-c3nn(-c4ccc(F)cc4)cc3Sc3ccc(Cl)cc3)ccc2C1=O` [Example 309, 6-{4-[(4-chlorophenyl)sulfanyl]-1-(4-fluorophenyl)-1H-pyrazol-3-yl}-2-ethyl-3,4-dihydroisoquinolin-1(2H)-one], 16 nM; as for `OC(c1ccc2cc(-c3nn(CCF)cc3Sc3ccc(Cl)cc3)ccc2n1)C(F)(F)F` (stereo not shown) [Example 373], 49 nM. As for `O=C1NCCc2cc(-c3n[nH]cc3Sc3ccc(Cl)cc3)ccc21` [Example 310, 6-{4-[(4-chlorophenyl)sulfanyl]-1H-pyrazol-3-yl}-3,4-dihydroisoquinolin-1(2H)-one], the IC50 is 72 nM. The same measure, in the same setting: as for `CC(=O)N1CCc2cc(-c3nn(C(C)C)cc3Sc3ccc(Cl)cc3)ccc2C1` [Example 377], the figure is 33 nM; as for `CC(=O)N1CCc2cc(-c3nn(C4CC4)cc3Sc3ccc(Cl)cc3)ccc2C1` [Example 360], 9.8 nM; as for `CCOC(=O)c1cnc2cc(-c3nn(CCF)cc3Sc3ccc(Cl)cc3)ccc2c1` [Example 371], 4 nM. Regarding `CCNC(=O)c1ccc2cc(-c3nn(CC4CC4)cc3Sc3ccc(Cl)cc3)ccc2n1` [Example 369], the concentration for half-maximal inhibition (IC50) was 1.6 nM. The same measure, in the same setting: the figure for `FC(F)c1ccc2cc(-c3nn(C4CC4)cc3Sc3ccc(Cl)cn3)ccc2n1` [Example 383] is 29 nM; for `FC(F)c1ccc2cc(-c3nn(C4CC4)cc3Sc3ccc(Cl)cc3)ccc2n1` [Example 381] it is 9.5 nM. The same measure, in the same setting: as for `Cn1cc(Sc2ccc(Cl)cc2)c(-c2ccc3nc(C#N)ccc3c2)n1` [Example 364], the figure is 131 nM. On the same count and under the same terms, the figure for `CCn1cc(-n2cc(Sc3ccc(Cl)cc3)c(-c3ccc4nc(C(F)F)ccc4c3)n2)cn1` [Example 382] is 4.9 nM. On to `CCOC(=O)c1ccc2cc(-c3nn(C)cc3Sc3ccc(Cl)cc3)ccc2n1` [Example 352], for which the IC50 worked out at 2.2 nM.

In the case of `OCc1cnc2cc(-c3nn(CCF)cc3Sc3ccc(Cl)cc3)ccc2c1` [Example 391], the IC50 came to 24 nM. Still for that read-out and setting: as for `Cn1cc(Sc2ccc(Cl)cc2)c(-c2ccc3nc(C(N)=O)ccc3c2)n1` [Example 353], the figure is 0.47 nM. The same measure, in the same setting: as for `O=c1[nH]cnc2cc(-c3nn(-c4ccc(F)cc4)cc3Sc3ccc(Cl)cc3)ccc12` [Example 313, 7-{4-[(4-chlorophenyl)sulfanyl]-1-(4-fluorophenyl)-1H-pyrazol-3-yl}quinazolin-4(3H)-one], the figure is 8.7 nM; as for `O=C1c2ccc(-c3nn(-c4ccccn4)cc3Sc3ccc(Cl)cc3)cc2CCN1CCF` [Example 339], 2.7 nM.

Another assay has as its target T1, FAAH. Kind of assay: FAAH whole cell assay, CHO cells expressing human FAAH. Type of assay: cell-based. The settings on record: read-out: FAAH Human Whole Cell IC50.
Description: as §1
Murine (accession number NM_010173) and Rat FAAH (accession number NM_024132) was amplified by reverse transcriptase polymerase chain reaction (RT-PCR) from brain cDNA (BD Biosciences, San Jose, Calif.) using primers 1 and 2 or primers 1 and 3 respectively (see Table). The resulting PCR product was ligated into pCR4TOPO and DNA sequence confirmed. The full length murine FAAH was subcloned into the mammalian expression vector, pcDEFneo using either EcoRI (murine) or KpnI and EcoRI (rat) restriction sites. Chinese hamster ovary cells (CHO) were transfected following manufacturers protocol (AMAXA). Forty eight hours post transfection, cells were trypsinized and transferred to 96 well plates in Iscove's DMEM media supplemented with 2 mM Glutamine, 10% fetal calf serum, 1 mg/ml geneticin and HT Supplement (0.1 mM sodium hypoxanthine, 0.016 mM thymidine) in order to isolate single clones. Following selection in geneticin, individual clones were selected and FAAH activity was assessed using a whole cell fluorescent anandamide assay, modified from Ramarao et al (2005). Following removal of tissue culture media cells were dislodged following addition of Cellstripper (Mediatech, Inc. Manassas, Va.) and transferred to 96 well black clear bottom assay plate, centrifuged at 1,000 rpm for 3 mins and media removed and replaced with assay buffer (50 mM Tris pH8.0, 1 mM EDTA, 0.1% fatty acid free BSA). The reaction was initiated by addition of fluorescent substrate, AMC Arachidonoyl Amide (Cayman Chemical, Ann Arbor, Mich.) to 1 μM and reaction allowed to proceed for 2 hours at room temperature. Release of fluorescence was monitored in a CytoFluor Multiplate Reader. Cells expressing the highest amount of FAAH activity were selected for study with FAAH inhibitors.
as §2
Turning to `CCOC(=O)c1cnc2cc(-c3c(Sc4ccc(Cl)cc4)cnn3C3CCCCO3)ccc2c1` (stereo not shown) [Example 407], the half-maximal inhibitory concentration (IC50) came to 1.94 nM.

As for `N#Cc1ccc2cc(-c3c(Sc4ccc(Cl)cc4)cnn3C3CCCCO3)ccc2n1` (stereo not shown) [Example 405], the concentration for half-maximal inhibition (IC50) worked out at 35 nM. Same read-out and setting: as for `CC(=O)N1CCc2cc(-c3c(Sc4ccc(Cl)cc4)cnn3C3CCCCO3)ccc2C1` (stereo not shown) [Example 404], the figure is 25 nM; as for `CC(C)(O)c1ccc2cc(-c3c(Sc4ccc(Cl)cc4)cnn3C3CCCCO3)ccc2n1` (stereo not shown) [Example 403], 63 nM; as for `CCNC(=O)c1ccc2cc(-c3c(Sc4ccc(Cl)cc4)cnn3C3CCCCO3)ccc2n1` (stereo not shown) [Example 402], 9.1 nM.

Source of the values: patent US20110144056A1, “PYRAZOLE DERIVATIVES USEFUL AS INHIBITORS OF FAAH” (priority 2008, published 2011).
